{
  "source": "paper PMC3388080",
  "about": "(PLoS ONE, 2012)",
  "assay_in_all_cases": "CEREP radioligand binding",
  "key": {"[1]": {"molecular_target": "T1, M2 (h) (Homo sapiens, UniProt P08172)", "T1 construct": "purchased CEREP", "T1 sequence (P08172 whole entry)": "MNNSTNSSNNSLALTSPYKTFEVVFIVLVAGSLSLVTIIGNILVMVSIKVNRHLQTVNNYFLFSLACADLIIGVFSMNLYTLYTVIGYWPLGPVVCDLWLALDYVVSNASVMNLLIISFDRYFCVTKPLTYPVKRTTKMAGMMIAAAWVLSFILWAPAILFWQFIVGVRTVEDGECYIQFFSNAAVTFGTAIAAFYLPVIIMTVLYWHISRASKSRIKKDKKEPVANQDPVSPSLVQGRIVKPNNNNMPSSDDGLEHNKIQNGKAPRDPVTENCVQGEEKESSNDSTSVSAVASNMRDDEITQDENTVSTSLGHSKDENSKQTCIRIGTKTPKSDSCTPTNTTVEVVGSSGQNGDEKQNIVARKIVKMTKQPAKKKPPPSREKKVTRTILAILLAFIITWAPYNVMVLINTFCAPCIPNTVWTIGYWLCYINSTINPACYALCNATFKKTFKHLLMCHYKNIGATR", "conditions": "% of control specific binding", "experimental": "(§1) SB-334867 was evaluated in a selectivity screen performed at CEREP (Paris, France). The screen consisted of binding assays on a panel of 79 target receptors. The specific binding (SB) of a radioligand to each target receptor was defined as the difference between the total binding and the nonspecific binding determined in the presence of a cold competitor in excess. […] Details on the CEREP screen are available from www.cerep.fr."}, "[2]": {"molecular_target": "T2, CCR1 (h) (Homo sapiens, UniProt P32246)", "T2 construct": "purchased CEREP", "conditions": "% of control specific binding", "experimental": "as §1"}, "[3]": {"molecular_target": "T3, M1 (h) (Homo sapiens, UniProt P11229)", "T3 construct": "purchased CEREP", "T3 sequence (P11229 whole entry)": "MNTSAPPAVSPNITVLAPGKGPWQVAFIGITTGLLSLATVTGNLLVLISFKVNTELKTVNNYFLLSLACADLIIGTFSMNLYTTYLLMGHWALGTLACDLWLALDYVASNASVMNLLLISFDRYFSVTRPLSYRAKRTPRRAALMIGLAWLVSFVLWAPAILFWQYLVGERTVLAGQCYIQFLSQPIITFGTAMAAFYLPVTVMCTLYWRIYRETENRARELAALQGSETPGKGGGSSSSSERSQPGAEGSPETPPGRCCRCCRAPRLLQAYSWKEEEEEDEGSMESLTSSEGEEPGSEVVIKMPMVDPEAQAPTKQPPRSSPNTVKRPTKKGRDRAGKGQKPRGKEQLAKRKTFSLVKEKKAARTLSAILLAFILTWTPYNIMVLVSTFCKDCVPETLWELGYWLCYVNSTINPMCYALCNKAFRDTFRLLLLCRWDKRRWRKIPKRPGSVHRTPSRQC", "conditions": "% of control specific binding", "experimental": "as §1"}, "[4]": {"molecular_target": "T4, 5-HT3 (h) (Homo sapiens, UniProt P46098)", "T4 construct": "purchased CEREP", "conditions": "% of control specific binding", "experimental": "as §1"}, "[5]": {"molecular_target": "T5, ETB (h) (Homo sapiens, UniProt P24530)", "T5 construct": "purchased CEREP", "T5 sequence (P24530 27-442)": "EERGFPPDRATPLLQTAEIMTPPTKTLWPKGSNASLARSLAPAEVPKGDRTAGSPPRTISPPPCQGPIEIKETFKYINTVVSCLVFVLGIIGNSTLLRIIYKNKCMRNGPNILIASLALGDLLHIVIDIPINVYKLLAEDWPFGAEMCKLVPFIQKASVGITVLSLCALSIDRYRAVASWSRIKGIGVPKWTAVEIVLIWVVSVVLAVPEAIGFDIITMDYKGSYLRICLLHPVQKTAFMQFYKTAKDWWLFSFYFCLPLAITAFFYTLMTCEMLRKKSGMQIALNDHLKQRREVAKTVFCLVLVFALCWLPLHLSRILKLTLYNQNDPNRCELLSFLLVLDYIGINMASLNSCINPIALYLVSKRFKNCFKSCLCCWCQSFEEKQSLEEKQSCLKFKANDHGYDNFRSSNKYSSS", "conditions": "% of control specific binding", "experimental": "as §1"}, "[6]": {"molecular_target": "T6, NK1 (h) (Homo sapiens, UniProt P25103)", "T6 construct": "purchased CEREP", "T6 sequence (P25103 whole entry)": "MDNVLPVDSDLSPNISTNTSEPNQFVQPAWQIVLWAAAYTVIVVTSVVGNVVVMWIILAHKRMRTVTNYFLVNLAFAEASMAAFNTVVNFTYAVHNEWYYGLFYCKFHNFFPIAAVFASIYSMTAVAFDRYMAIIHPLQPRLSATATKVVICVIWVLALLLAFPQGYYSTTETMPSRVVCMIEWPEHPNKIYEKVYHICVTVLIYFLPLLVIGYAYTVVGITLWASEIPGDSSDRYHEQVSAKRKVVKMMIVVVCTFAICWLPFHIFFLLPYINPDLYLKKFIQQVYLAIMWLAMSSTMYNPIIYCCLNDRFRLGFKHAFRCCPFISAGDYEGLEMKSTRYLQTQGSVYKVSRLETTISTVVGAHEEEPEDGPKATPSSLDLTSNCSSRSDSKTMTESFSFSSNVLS", "conditions": "% of control specific binding", "experimental": "as §1"}, "[7]": {"molecular_target": "T7, Y1 (h) (Homo sapiens, UniProt P25929)", "T7 construct": "purchased CEREP", "conditions": "% of control specific binding", "experimental": "as §1"}, "[8]": {"molecular_target": "T8, CCKB (h) (CCK2) (Homo sapiens, UniProt P32239)", "T8 construct": "purchased CEREP", "conditions": "% of control specific binding", "experimental": "as §1"}, "[9]": {"molecular_target": "T9, NK3 (h) (Homo sapiens, UniProt P29371)", "T9 construct": "purchased CEREP", "conditions": "% of control specific binding", "experimental": "as §1"}, "[10]": {"system": "PCP", "conditions": "% of control specific binding", "experimental": "as §1"}, "[11]": {"molecular_target": "T10, 5-HT2C (h) (Homo sapiens, UniProt P28335)", "T10 construct": "purchased CEREP", "T10 sequence (P28335 33-458)": "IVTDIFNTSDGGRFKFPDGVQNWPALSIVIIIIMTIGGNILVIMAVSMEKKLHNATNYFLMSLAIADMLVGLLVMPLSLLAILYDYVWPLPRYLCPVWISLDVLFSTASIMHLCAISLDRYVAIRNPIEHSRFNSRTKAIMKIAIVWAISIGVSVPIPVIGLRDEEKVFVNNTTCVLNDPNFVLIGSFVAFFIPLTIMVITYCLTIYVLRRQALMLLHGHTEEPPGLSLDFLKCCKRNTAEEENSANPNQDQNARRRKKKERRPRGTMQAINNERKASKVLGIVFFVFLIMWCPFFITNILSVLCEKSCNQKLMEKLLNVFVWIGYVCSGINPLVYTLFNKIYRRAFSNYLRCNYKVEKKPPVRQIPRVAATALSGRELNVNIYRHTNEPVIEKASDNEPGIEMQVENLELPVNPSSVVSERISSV", "experimental": "as §1"}, "[12]": {"system": "alpha 2 (non-selective)", "conditions": "% of control specific binding", "experimental": "as §1"}, "[13]": {"molecular_target": "T11, NT1 (h) (NTS1) (Homo sapiens, UniProt P30989)", "T11 construct": "purchased CEREP", "T11 sequence (P30989 whole entry)": "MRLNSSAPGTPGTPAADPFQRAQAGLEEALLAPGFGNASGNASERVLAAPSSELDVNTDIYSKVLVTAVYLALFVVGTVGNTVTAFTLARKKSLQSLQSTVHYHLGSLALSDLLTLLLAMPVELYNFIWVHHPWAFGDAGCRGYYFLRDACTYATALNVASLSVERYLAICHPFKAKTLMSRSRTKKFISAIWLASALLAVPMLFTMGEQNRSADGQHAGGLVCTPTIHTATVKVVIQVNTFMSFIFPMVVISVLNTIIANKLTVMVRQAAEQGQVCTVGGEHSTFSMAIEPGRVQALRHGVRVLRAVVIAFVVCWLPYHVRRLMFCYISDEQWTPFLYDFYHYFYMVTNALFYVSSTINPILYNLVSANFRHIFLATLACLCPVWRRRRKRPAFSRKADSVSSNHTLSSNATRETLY", "conditions": "% of control specific binding", "experimental": "as §1"}, "[14]": {"molecular_target": "T12, PACAP (h) (PAC1) (Homo sapiens, UniProt P41586)", "T12 construct": "purchased CEREP", "conditions": "% of control specific binding", "experimental": "as §1"}, "[15]": {"molecular_target": "T13, D3 (h) (Homo sapiens, UniProt P35462)", "T13 construct": "purchased CEREP", "conditions": "% of control specific binding", "experimental": "as §1"}, "[16]": {"system": "GABA (non-selective)", "conditions": "% of control specific binding", "experimental": "as §1"}, "[17]": {"system": "SK+Ca channel", "conditions": "% of control specific binding", "experimental": "as §1"}, "[18]": {"system": "sst (non-selective)", "conditions": "% of control specific binding", "experimental": "as §1"}, "[19]": {"molecular_target": "T14, 5-HT1A (h) (Homo sapiens, UniProt P08908)", "T14 construct": "purchased CEREP", "conditions": "% of control specific binding", "experimental": "as §1"}, "[20]": {"molecular_target": "T15, 5-HT7 (h) (Homo sapiens, UniProt P34969)", "T15 construct": "purchased CEREP", "conditions": "% of control specific binding", "experimental": "as §1"}, "[21]": {"molecular_target": "T16, A2A (h) (Homo sapiens, UniProt P29274)", "T16 construct": "purchased CEREP", "T16 sequence (P29274 whole entry)": "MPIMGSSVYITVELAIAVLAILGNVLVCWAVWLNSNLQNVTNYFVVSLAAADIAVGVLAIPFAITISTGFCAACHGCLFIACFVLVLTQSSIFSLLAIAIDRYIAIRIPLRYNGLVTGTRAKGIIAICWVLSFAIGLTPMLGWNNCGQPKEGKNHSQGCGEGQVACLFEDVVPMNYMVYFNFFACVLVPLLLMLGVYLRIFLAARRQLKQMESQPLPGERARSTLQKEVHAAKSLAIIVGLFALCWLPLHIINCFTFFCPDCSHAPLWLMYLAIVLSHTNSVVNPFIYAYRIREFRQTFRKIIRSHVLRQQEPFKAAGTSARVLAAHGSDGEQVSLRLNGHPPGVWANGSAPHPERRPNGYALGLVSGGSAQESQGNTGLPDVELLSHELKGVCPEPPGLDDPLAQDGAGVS", "experimental": "as §1"}, "[22]": {"molecular_target": "T17, beta 2 (h) (Homo sapiens, UniProt P07550)", "T17 construct": "purchased CEREP", "T17 sequence (P07550 whole entry)": "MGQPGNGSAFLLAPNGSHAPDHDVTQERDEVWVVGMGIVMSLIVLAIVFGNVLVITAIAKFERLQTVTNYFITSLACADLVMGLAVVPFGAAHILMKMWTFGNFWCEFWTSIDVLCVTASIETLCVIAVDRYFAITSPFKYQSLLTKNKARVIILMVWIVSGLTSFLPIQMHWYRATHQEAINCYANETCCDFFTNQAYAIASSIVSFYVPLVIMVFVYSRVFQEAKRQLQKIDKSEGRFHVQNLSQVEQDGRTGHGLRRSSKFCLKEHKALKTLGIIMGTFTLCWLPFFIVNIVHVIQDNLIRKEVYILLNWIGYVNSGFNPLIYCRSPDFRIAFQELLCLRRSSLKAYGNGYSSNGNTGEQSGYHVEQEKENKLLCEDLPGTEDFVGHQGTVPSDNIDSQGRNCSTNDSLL", "conditions": "% of control specific binding", "experimental": "as §1"}, "[23]": {"molecular_target": "T18, V1a (h) (Homo sapiens, UniProt P37288)", "T18 construct": "purchased CEREP", "T18 sequence (P37288 whole entry)": "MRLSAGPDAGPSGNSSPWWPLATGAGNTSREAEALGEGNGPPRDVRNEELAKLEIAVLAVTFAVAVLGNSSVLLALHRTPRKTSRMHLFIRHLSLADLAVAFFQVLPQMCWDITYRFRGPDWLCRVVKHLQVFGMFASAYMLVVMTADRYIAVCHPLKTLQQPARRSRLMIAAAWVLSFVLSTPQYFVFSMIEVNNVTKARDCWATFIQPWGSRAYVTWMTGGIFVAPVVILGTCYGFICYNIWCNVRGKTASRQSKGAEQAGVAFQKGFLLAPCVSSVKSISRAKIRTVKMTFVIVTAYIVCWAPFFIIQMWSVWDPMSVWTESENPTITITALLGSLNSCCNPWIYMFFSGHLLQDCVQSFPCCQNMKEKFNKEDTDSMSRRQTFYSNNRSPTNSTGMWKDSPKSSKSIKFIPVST", "conditions": "% of control specific binding", "experimental": "as §1"}, "[24]": {"system": "P2Y", "experimental": "as §1"}, "[25]": {"molecular_target": "T19, 5-HT1B (Rattus norvegicus, UniProt P28564)", "T19 construct": "purchased CEREP", "conditions": "% of control specific binding", "experimental": "as §1"}, "[26]": {"system": "alpha 1 (non-selective)", "conditions": "% of control specific binding", "experimental": "as §1"}, "[27]": {"system": "BB (non-selective)", "conditions": "% of control specific binding", "experimental": "as §1"}, "[28]": {"system": "Ca2+ channel (L, verapamil site) (phenylalkylamines)", "conditions": "% of control specific binding", "experimental": "as §1"}, "[29]": {"system": "P2X", "conditions": "% of control specific binding", "experimental": "as §1"}, "[30]": {"molecular_target": "T20, NK2 (h) (Homo sapiens, UniProt P21452)", "T20 construct": "purchased CEREP", "conditions": "% of control specific binding", "experimental": "as §1"}, "[31]": {"molecular_target": "T21, MC4 (h) (Homo sapiens, UniProt P32245)", "T21 construct": "purchased CEREP", "conditions": "% of control specific binding", "experimental": "as §1"}, "[32]": {"molecular_target": "T22, CGRP (h) (Homo sapiens, UniProt O60894+Q16602)", "T22 construct": "purchased CEREP", "conditions": "% of control specific binding", "experimental": "as §1"}, "[33]": {"molecular_target": "T23, delta 2 (h) (DOP) (Homo sapiens, UniProt P41143)", "T23 construct": "purchased CEREP", "T23 sequence (P41143 whole entry)": "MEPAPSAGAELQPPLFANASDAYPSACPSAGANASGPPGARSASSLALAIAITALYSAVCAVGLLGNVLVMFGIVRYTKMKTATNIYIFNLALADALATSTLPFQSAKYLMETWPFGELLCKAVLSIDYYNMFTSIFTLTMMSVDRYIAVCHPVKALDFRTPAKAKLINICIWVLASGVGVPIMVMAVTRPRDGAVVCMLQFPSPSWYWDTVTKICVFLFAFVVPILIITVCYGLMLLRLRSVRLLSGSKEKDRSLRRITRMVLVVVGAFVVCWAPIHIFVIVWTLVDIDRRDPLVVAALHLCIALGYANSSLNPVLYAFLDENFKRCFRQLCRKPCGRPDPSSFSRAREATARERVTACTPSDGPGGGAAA", "conditions": "% of control specific binding", "experimental": "as §1"}, "[34]": {"molecular_target": "T24, GAL2 (h) (Homo sapiens, UniProt O43603)", "T24 construct": "purchased CEREP", "T24 sequence (O43603 whole entry)": "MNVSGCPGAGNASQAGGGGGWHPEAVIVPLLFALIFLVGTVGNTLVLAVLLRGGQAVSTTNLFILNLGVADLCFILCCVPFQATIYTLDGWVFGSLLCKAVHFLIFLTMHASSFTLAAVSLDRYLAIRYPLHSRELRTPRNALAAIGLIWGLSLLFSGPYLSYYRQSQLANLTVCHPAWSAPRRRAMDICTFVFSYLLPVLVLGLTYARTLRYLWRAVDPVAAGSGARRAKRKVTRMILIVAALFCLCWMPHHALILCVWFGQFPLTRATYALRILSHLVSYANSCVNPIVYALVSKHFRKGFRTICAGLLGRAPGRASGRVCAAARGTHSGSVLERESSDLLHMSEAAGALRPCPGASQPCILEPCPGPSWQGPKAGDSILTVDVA", "conditions": "% of control specific binding", "experimental": "as §1"}, "[35]": {"system": "BZD (central)", "conditions": "% of control specific binding", "experimental": "as §1"}, "[36]": {"molecular_target": "T25, TXA2/PGH2 (h) (TP) (Homo sapiens, UniProt P21731)", "T25 construct": "purchased CEREP", "T25 sequence (P21731 whole entry)": "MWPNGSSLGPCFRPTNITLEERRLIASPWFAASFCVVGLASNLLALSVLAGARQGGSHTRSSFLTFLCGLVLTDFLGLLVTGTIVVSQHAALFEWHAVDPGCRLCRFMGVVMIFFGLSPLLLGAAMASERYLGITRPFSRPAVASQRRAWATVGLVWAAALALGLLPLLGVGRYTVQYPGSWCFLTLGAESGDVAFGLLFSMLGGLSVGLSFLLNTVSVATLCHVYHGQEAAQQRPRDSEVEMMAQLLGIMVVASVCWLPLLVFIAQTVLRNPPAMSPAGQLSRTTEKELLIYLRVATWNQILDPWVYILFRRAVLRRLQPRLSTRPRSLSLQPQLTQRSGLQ", "conditions": "% of control specific binding", "experimental": "as §1"}},
  "data": [
    {"smiles": "Cc1nc2ccc(NC(=O)Nc3ccnc4cccnc34)cc2o1.Cl", "note": "[SB-334867, 1-(2-methylbenzoxazol-6-yl)-3-[1], [5]naphthyridin-4-yl-urea hydrochloride]", "values": [
      {"measurement": "% Control (10 µM) Mean SB", "setting": "[1]", "result": 87.3, "unit": "%"},
      {"measurement": "% Control (10 µM) Mean SB", "setting": "[2]", "result": 94.5, "unit": "%"},
      {"measurement": "% Control (10 µM) Mean SB", "setting": "[3]", "result": 103.6, "unit": "%"},
      {"measurement": "% Control (10 µM) Mean SB", "setting": "[4]", "result": 93.9, "unit": "%"},
      {"measurement": "% Control (10 µM) Mean SB", "setting": "[5]", "result": 96.5, "unit": "%"},
      {"measurement": "% Control (10 µM) Mean SB", "setting": "[6]", "result": 104.4, "unit": "%"},
      {"measurement": "% Control (10 µM) Mean SB", "setting": "[7]", "result": 102.7, "unit": "%"},
      {"measurement": "% Control (10 µM) Mean SB", "setting": "[8]", "result": 135.1, "unit": "%"},
      {"measurement": "% Control (10 µM) Mean SB", "setting": "[9]", "result": 86.3, "unit": "%"},
      {"measurement": "% Control (10 µM) Mean SB", "setting": "[10]", "result": 91.8, "unit": "%"},
      {"measurement": "displacement of specific binding", "setting": "[11]; 10 µM, 5HT2C (serotonin 2C)", "result": 70, "unit": "%"},
      {"measurement": "% Control (10 µM) Mean SB", "setting": "[11]; % of control specific binding", "result": 30.4, "unit": "%"},
      {"measurement": "% Control (10 µM) Mean SB", "setting": "[12]", "result": 96.1, "unit": "%"},
      {"measurement": "% Control (10 µM) Mean SB", "setting": "[13]", "result": 106.9, "unit": "%"},
      {"measurement": "% Control (10 µM) Mean SB", "setting": "[14]", "result": 107.7, "unit": "%"},
      {"measurement": "% Control (10 µM) Mean SB", "setting": "[15]", "result": 97.1, "unit": "%"},
      {"measurement": "% Control (10 µM) Mean SB", "setting": "[16]", "result": 105.5, "unit": "%"},
      {"measurement": "% Control (10 µM) Mean SB", "setting": "[17]", "result": 114.4, "unit": "%"},
      {"measurement": "% Control (10 µM) Mean SB", "setting": "[18]", "result": 88.9, "unit": "%"},
      {"measurement": "% Control (10 µM) Mean SB", "setting": "[19]", "result": 106.6, "unit": "%"},
      {"measurement": "% Control (10 µM) Mean SB", "setting": "[20]", "result": 99.9, "unit": "%"},
      {"measurement": "displacement of specific binding", "setting": "[21]; 10 µM, A2A (adenosine)", "result": 89, "unit": "%"},
      {"measurement": "% Control (10 µM) Mean SB", "setting": "[21]; % of control specific binding", "result": 10.6, "unit": "%"},
      {"measurement": "% Control (10 µM) Mean SB", "setting": "[22]", "result": 94.6, "unit": "%"},
      {"measurement": "% Control (10 µM) Mean SB", "setting": "[23]", "result": 106.1, "unit": "%"},
      {"measurement": "displacement of specific binding", "setting": "[24]; 10 µM, P2Y (purinergic 2Y)", "result": 64, "unit": "%"},
      {"measurement": "% Control (10 µM) Mean SB", "setting": "[24]; % of control specific binding", "result": 36.4, "unit": "%"},
      {"measurement": "% Control (10 µM) Mean SB", "setting": "[25]", "result": 85.9, "unit": "%"},
      {"measurement": "% Control (10 µM) Mean SB", "setting": "[26]", "result": 87.5, "unit": "%"},
      {"measurement": "% Control (10 µM) Mean SB", "setting": "[27]", "result": 109.9, "unit": "%"},
      {"measurement": "% Control (10 µM) Mean SB", "setting": "[28]", "result": 92.3, "unit": "%"},
      {"measurement": "% Control (10 µM) Mean SB", "setting": "[29]", "result": 94.9, "unit": "%"},
      {"measurement": "% Control (10 µM) Mean SB", "setting": "[30]", "result": 96, "unit": "%"},
      {"measurement": "% Control (10 µM) Mean SB", "setting": "[31]", "result": 97.9, "unit": "%"},
      {"measurement": "% Control (10 µM) Mean SB", "setting": "[32]", "result": 103.6, "unit": "%"},
      {"measurement": "% Control (10 µM) Mean SB", "setting": "[33]", "result": 86.1, "unit": "%"},
      {"measurement": "% Control (10 µM) Mean SB", "setting": "[34]", "result": 97.3, "unit": "%"},
      {"measurement": "% Control (10 µM) Mean SB", "setting": "[35]", "result": 89.4, "unit": "%"},
      {"measurement": "% Control (10 µM) Mean SB", "setting": "[36]", "result": 98.8, "unit": "%"}
    ]}
  ]
}
